{"source": "patent US20170276692A1", "about": "“METHODS OF MONITORING FOR ADHERENCE TO BREXPIPRAZOLE (REXULTI®) THERAPY” (Ameritox, LLC, priority 2016, published 2017)", "origin": "cited, not measured here", "key": {"[1]": {"conditions": "for predominant route of excretion: in vivo"}, "[2]": {"conditions": "brexpiprazole is the predominant species"}}, "data": [{"smiles": "O=c1ccc2ccc(OCCCCN3CCN(c4cccc5sccc45)CC3)cc2[nH]1", "note": "[Brexpiprazole]", "values": [{"measurement": "fraction of an oral dose excreted as unchanged brexpiprazole in feces", "setting": "[1]; oral dose, feces", "value": 14, "unit": "%"}, {"measurement": "fraction of an oral dose excreted as unchanged brexpiprazole in urine", "setting": "[1]; oral dose, urine", "value": "Less than 1%"}, {"measurement": "oral bioavailability", "setting": "after oral administration", "value": 95, "unit": "%"}, {"measurement": "time to steady state serum concentrations", "setting": "days of dosing", "value": "10 to 12", "unit": "days"}, {"measurement": "mean elimination half-life", "setting": "in vivo", "value": 91, "unit": "h"}]}, {"smiles": "O=C(O)CCCOc1ccc2ccc(=O)[nH]c2c1", "note": "[OPC3952]", "values": [{"measurement": "predominant route of excretion", "setting": "[1]", "value": "excreted predominantly in urine"}, {"measurement": "metabolite level in plasma", "setting": "[2]", "value": "0-4%"}]}, {"smiles": "c1cc(N2CCNCC2)c2ccsc2c1", "note": "[SF034318]", "values": [{"measurement": "predominant route of excretion", "setting": "[1]", "value": "excreted predominantly in urine"}]}]}
